The test system of series [1] is Vero cells.
Series [2] has as its system rLCMV/GFP-P2A-NP. The series is described as follows: organism not typed. The note with it: for EC50: Hec50, read-out: EC50, LCMV multiplication (GFP expression). The class given is cell-based, LCMV.
Series [3] in a line: in vitro. The following applies: African green monkey, CC50 (CellTiter 96 Aqueous One).
Series [4] deals with LASV vRNP (UniProt P13699+Q6GWS6). Type of series: cell-based.
Series [5] deals with T1, LCMV vRNP (Lymphocytic choriomeningitis virus, UniProt P09992+P14240).
T1 construct: expressed in transfected cells; host or cells: HEK293T
T1 sequence (P09992 whole entry): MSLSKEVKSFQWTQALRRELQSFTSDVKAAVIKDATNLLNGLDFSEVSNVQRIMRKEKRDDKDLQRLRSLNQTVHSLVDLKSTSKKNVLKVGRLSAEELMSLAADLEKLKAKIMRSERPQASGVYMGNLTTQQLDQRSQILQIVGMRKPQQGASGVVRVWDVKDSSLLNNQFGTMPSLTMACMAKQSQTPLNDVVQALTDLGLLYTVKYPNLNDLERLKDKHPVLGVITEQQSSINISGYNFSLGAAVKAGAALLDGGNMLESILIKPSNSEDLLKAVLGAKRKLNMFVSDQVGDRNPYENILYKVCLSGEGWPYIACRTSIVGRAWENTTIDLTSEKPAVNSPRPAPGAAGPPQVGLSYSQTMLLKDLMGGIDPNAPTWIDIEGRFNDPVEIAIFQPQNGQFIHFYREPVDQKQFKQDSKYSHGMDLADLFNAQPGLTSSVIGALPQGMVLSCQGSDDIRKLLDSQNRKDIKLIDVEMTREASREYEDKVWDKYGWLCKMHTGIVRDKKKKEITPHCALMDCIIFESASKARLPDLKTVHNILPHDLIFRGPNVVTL
T1 sequence (P14240 whole entry): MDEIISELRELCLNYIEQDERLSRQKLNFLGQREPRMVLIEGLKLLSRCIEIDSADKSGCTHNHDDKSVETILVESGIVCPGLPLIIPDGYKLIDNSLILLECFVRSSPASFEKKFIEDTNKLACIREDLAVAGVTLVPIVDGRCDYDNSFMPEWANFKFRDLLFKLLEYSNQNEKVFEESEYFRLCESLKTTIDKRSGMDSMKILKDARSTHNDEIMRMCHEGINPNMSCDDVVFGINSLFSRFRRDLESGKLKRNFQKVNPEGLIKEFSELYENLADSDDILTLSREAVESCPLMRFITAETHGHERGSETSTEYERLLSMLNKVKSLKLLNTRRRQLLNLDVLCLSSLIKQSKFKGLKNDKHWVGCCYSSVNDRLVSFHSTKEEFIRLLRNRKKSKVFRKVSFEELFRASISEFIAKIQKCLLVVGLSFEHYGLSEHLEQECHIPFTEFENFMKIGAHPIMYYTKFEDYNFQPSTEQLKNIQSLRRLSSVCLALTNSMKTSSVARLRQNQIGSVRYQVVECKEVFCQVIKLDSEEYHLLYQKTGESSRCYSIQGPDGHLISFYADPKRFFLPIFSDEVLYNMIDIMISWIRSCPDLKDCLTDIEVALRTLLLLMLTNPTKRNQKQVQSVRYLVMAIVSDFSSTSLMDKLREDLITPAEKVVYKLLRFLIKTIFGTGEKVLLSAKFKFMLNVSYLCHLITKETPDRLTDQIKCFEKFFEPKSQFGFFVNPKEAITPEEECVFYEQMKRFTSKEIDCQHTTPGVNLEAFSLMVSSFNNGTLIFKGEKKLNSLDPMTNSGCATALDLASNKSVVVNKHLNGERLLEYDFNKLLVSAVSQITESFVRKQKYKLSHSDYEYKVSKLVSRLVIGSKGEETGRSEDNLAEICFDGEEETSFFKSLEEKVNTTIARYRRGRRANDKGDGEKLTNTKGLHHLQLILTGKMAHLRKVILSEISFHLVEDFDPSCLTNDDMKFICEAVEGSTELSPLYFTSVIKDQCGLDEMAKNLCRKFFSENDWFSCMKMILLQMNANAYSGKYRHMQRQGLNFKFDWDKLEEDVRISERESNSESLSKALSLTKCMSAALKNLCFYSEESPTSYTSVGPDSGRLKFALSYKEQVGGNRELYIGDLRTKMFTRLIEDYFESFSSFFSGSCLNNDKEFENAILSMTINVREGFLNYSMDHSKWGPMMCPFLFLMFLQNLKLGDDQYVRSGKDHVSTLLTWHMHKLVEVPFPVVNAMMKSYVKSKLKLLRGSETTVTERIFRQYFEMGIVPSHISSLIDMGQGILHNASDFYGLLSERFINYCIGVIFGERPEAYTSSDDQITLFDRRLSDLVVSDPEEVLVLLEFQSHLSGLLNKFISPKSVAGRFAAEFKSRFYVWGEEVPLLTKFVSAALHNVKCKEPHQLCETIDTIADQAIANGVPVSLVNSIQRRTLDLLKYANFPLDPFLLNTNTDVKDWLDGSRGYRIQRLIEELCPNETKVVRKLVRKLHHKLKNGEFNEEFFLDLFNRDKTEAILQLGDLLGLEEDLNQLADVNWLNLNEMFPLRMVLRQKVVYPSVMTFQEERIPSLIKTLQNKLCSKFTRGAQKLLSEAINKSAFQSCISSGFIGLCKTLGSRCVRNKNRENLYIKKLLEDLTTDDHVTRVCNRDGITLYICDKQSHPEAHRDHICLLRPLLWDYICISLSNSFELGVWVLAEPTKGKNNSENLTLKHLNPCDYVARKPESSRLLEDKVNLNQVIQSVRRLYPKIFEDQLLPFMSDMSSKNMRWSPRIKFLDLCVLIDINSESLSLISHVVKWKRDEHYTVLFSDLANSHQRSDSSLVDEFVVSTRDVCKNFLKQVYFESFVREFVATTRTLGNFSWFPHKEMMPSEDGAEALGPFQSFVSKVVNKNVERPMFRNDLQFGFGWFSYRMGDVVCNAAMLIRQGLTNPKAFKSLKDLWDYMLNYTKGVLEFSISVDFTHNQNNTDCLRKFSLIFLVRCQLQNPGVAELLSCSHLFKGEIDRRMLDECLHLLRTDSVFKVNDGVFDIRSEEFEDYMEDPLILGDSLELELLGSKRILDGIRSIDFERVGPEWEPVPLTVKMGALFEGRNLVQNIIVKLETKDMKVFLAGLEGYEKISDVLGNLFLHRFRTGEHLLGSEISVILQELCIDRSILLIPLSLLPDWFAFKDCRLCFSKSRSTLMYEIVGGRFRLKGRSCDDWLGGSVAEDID
The class given is cell-based.

The target of series [6] is T2, LCMV GPC (GP2-mediated fusion) (Lymphocytic choriomeningitis virus, UniProt P09991).
T2 construct: expressed in transfected cells; host or cells: HEK293T
T2 sequence (P09991 266-498 limits assumed): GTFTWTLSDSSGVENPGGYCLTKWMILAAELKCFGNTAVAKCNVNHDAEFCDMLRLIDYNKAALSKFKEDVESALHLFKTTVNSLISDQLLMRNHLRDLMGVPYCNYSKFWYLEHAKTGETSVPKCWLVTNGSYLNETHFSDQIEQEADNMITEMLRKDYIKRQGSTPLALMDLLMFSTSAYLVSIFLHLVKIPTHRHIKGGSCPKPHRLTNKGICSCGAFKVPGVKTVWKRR
T2 sequence (P09991 59-265 limits assumed): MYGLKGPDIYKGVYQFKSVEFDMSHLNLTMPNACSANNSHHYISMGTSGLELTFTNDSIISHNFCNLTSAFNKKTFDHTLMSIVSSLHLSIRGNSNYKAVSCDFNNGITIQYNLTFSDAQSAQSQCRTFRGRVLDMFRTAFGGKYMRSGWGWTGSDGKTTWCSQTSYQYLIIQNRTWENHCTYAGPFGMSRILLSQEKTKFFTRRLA
T2 sequence (P09991 2-58 limits assumed): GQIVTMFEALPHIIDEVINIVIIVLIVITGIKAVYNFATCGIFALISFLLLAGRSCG
Type of series: cell-based.

The test system of series [7] is r3JUNVCandid GFP/GFP (r3Can-GFP). Type of series: cell-based, JUNV.
Series [8] has as its system rLCMV/GFP-P2A-NP. Set-up: species or system LCMV.
Series [9] can be described thus: in vitro. The note with it: human.
The conditions of series [10]: cited from earlier work.
The test system of series [11] is rLCMV/GFP-P2A-NP. The class given is cell-based, LCMV.
Series [12] has as its system rLCMV/GFP-P2A-NP. The series is described as follows: organism not typed. The class given is cell-based, LCMV. The note with it: for EC50: A549, read-out: EC50, LCMV multiplication (GFP expression).
The test system of series [13] is A549 cells.
For series [14], the system named is mammarenavirus. The note with it: cited from earlier work.

The term EC50 denotes the concentration at which the effect is half-maximal.

Like-named read-outs stand apart in the source and are kept apart here.

As to `C[C@@H]1C[C@H]2[C@@H]3CCC4=CC(=O)C=C[C@]4(C)[C@@]3(F)[C@@H](O)C[C@]2(C)[C@@]1(O)C(=O)CO` [DEX, dexamethasone], the “Toxicity on Vero cells (in words)” value in [1] is listed as “minimal toxicity”. For the same molecule, the “Inhibitory activity on LCMV multiplication (in words)” value (shortened to “Inhibitory activity”) in [2] was “very poor inhibitory activity”. The CC50 in series [3] is 55.7 µM. In series [4], the “Reduction in LASV MG-directed ZsGreen expression levels vs vehicle control” value (“Reduction … vs vehicle control” for short) is reported as ~ 28%. The “Inhibition of LCMV MG activity (in words)” value (“Inhibition … (in words)” for short) in [5] is on record as “minimal inhibitory activities”.

As for `Fc1ccc(C(c2ccc(F)cc2)N2CCN(C/C=C/c3ccccc3)CC2)cc1` [FLN, Flunarizine], the “GP2-mediated pH-dependent fusion (syncytium formation)” value in series [6] was “inhibition of GP2-mediated fusion”. Moreover, in [7], the “Reduction in r3Can-GFP (JUNV) virus peak titers vs VC” value is greater than 1 log. The same molecule yielded a CC50 in series [3] greater than 100 µM. Besides, in [8], the “Virucidal activity: effect on virion infectivity” value is listed as “did not significantly affect virion infectivity”. Moreover, in [9], the CC50 amounted to 74.3 µM. The “Reduction … vs vehicle control” value in [4] was ~ 50%. Further, in [5], the “Inhibition … (in words)” value was “strongest inhibitory effect” and the “Inhibition of LCMV MG vRNP-directed reporter gene (GFP) expression” value was ~ 75%. The “Bound to plasma proteins” value in series [10] is “More than 99%”. Besides, in [11], the “Levels of viral (LCMV NP) RNA determined by RT-qPCR” value is “reduced” and the “Virus cell propagation (GFP imaging)” value was “reduced virus cell propagation”.

For the molecule `NCC1(CC(=O)O)CCCCC1` [Gabapentin, gabapentin], in [12], the “Anti-LCMV activity of calcium channel blockers (in words)” value is “did not exhibit significant anti-LCMV activity” and the “EC50, LCMV multiplication (GFP expression)” value was “>Flat”. Moreover, in series [9], the CC50 was greater than 100 µM.

`OC(c1cc(C(F)(F)F)nc2c(C(F)(F)F)cccc12)C1CCCCN1` (stereo not drawn) [MEF, mefloquine] showed a CC50 in series [1] (African green monkey) of 27.3 µM. In series [2], the “selective index (SI)” value came out at 1.87 and the EC50 was 15.5 µM. The CC50 in series [3] stood at 29.1 µM. The “Reduction … vs vehicle control” value in [4] is listed as 5%. The “Inhibition … (in words)” value in series [5] is listed as “minimal inhibitory activities”.

`[Cl][Ni][Cl]` [Nickel Chloride, nickel chloride]: the “Anti-LCMV activity of calcium channel blockers (in words)” value in series [12] is “did not exhibit significant anti-LCMV activity”. The CC50 in series [13] was greater than 100 µM.

On to `COC(=O)C1=C(C)NC(C)=C(C(=O)OC)C1c1ccccc1[N+](=O)[O-]` [Nifidipine, nifedipine], for which, in [12], the “Anti-LCMV activity of calcium channel blockers (in words)” value is listed as “did not exhibit significant anti-LCMV activity” and the EC50 is greater than 100 µM.

On to `CN1CC(=O)N2[C@H](c3ccc4c(c3)OCO4)c3[nH]c4ccccc4c3C[C@@H]2C1=O` [TAD, tadalafil], for which, in series [1], the “Toxicity on Vero cells (in words)” value was “minimal toxicity”. Moreover, in series [2], the “Inhibitory activity” value is “very poor inhibitory activity” and the EC50 was greater than 100 µM. Further, the CC50 in series [3] was greater than 100 µM. Moreover, the “Reduction … vs vehicle control” value in series [4] was ~ 12%. The “Inhibition … (in words)” value in [5] was “minimal inhibitory activities”.

On to `COc1ccc(CCN(C)CCCC(C#N)(c2ccc(OC)c(OC)c2)C(C)C)cc1OC` (stereo not drawn) [Verapamil, verapamil], for which, in [12], the “Anti-LCMV activity of calcium channel blockers (in words)” value is given as “did not exhibit significant anti-LCMV activity” and the EC50 is greater than 100 µM. This molecule also had a CC50 in [9] greater than 100 µM.

`C=C1CC[C@H](O)C/C1=C/C=C1\CCC[C@]2(C)[C@@H]([C@H](C)/C=C/[C@H](C)C(C)C)CC[C@@H]12` [Vit D, ergocalciferol]: in series [1], the “Toxicity on Vero cells (in words)” value is “minimal toxicity”. In series [2], the “Inhibitory activity” value is listed as “very poor inhibitory activity” and the 50% effective concentration (EC50) is greater than 100 µM. In addition, the CC50 in [3] is greater than 100 µM. Moreover, in series [4], the “Reduction … vs vehicle control” value is recorded as ~ 18%. Further, the “Inhibition … (in words)” value in series [5] is “minimal inhibitory activities”.

On to `Clc1ccc(Cn2c(CN3CCCC3)nc3ccccc32)cc1` [clemizole], for which the “Anti-mammarenavirus activity (in words)” value in series [14] is “does not exhibit anti-mammarenavirus activity”.

The record behind these values is publication PMC11768584 (Viruses, 2025).
